The source of these data is patent EP1435941B1 (ARIZONA BOARD OF REGENTS on behalf of THE UNIVERSITY OF …, priority 2001, dated 2003).

The structures appear in SMILES notation. Where two headings read alike, the source gives them in different places.

Data set [1] deals with NCl cell panel. Put plainly: Cytotoxicity, MTT assay. The settings on record: read-out: cytotoxieity NCl cell panel IC50.
For data set [2], the target named is phesphatidylinositol-3-kinase. Description: PI-3 kinase enzyme inhibition. In kind it is biochemical. Particulars: read-out: P1-3 kinase Inhibition IC50. The text has this:
(§1) Highlighted are the compounds being made for antitumor testing.

Data set [3] deals with C57BL6 mice. Description: Toxicity in mice, intraperitoneal daily for 4 days (MTD, differential blood counts, serum chemistry). It counts as in vivo. Particulars: for Lymphocyte toxicity relative to wortmannin: percent decrease in lymphocyte counts at the MTD or highest dose tested; for Lymphocyte toxicity relative to wortmannin / Liver toxicity relative to wortmannie: wortmannin as 1.0; for Maximum tolerated dose: Ip qD x 4, MTD=>10% body weight loss, C57BL6 mice; for Liver toxicity relative to wortmannie: mean percent increase in serum ALT and AST at the MTD or highest dose tested.
Excerpt: as §1

For data set [4], the target named is mTOR. Put plainly: mTOR enzyme inhibition. It counts as biochemical. Particulars: dose to cause 50% inhibition.
Excerpt: as §1

Data set [5] has as its system NCl cell panel. Particulars: nci cell panel, 48 h.
Setting [6] is: 2 day MTT assay, mean of 60 cell lines.

Regarding `COC[C@H]1OC(=O)c2coc3c2[C@@]1(C)C1=C(C3=O)[C@@H]2CCC(=O)[C@@]2(C)C[C@H]1OC(C)=O` [wortmannin, reference compound], the IC50 was determined as 8.9 µM in data set [1] (Homo sapiens, 60 cell, 48 h) and 0.3 µM in data set [2].

For `COC[C@H]1OC(=O)/C(=C/NCC(N)=O)C2=C(O)C(=O)C3=C([C@H](OC(C)=O)C[C@]4(C)C(=O)CC[C@@H]34)[C@]21C` [DJM2-190], the figures for the IC50 in data set [1] (setting [6]), in data set [4] and in data set [2] (dose to cause 50% inhibition) were 33 µM, above 3 µM and 10 µM, respectively. Moreover, the “Lymphocyte toxicity relative to wortmannin” value in data set [3] amounted to 0.6.

With `COC[C@H]1OC(=O)/C(=C/NC(C)C(=O)O)C2=C(O)C(=O)C3=C([C@H](OC(C)=O)C[C@]4(C)C(=O)CC[C@@H]34)[C@]21C` (stereo partly drawn) [DJM2-177], the IC50 in data set [1] (setting [6]) came out at 10.2 µM. Also, in data set [3], the Maximum tolerated dose amounted to 6 mg/kg, the “Liver toxicity relative to wortmannie” value was 0.2 and the “Lymphocyte toxicity relative to wortmannin” value is recorded as 2.0. This compound also registered an IC50 in data set [4] of 1.5 µM. For the same compound, the IC50 in data set [2] (dose to cause 50% inhibition) turned out to be 0.3 µM.

`COC[C@H]1OC(=O)/C(=C/SCc2ccccc2)C2=C(O)C(=O)C3=C([C@H](OC(C)=O)C[C@]4(C)C(=O)CC[C@@H]34)[C@]21C` [DJM2-170]: the IC50 in data set [1] (setting [6]) was 7.1 µM. Also, in data set [3], the Maximum tolerated dose was determined as 9 mg/kg, the “Liver toxicity relative to wortmannie” value is recorded as 1.7 and the “Lymphocyte toxicity relative to wortmannin” value is recorded as 1.1. The IC50 in data set [4] is above 3 µM. Besides, the IC50 in data set [2] (dose to cause 50% inhibition) worked out at 1 µM.

As for `COC[C@H]1OC(=O)C(=CN(C)Cc2ccccc2)C2=C(O)C(=O)C3=C([C@H](OC(C)=O)C[C@]4(C)C(=O)CC[C@@H]34)[C@]21C` [DJM2-181, Acetic acid 4-[(benzylmethylamino)methylene]-6-hydroxy-1α-methoxymethyl-10β,13β-dimethyl-3,7,17-trioxo-1,3,4,7,10,11β,12,13, 14α,15,16,17-dodecahydro-2-oxa-cyclopenca[a]phenanthren-11-yl ester], the Maximum tolerated dose in data set [3] is above 18 mg/kg. In addition, the results for the IC50 in data set [4], in data set [2] (dose to cause 50% inhibition) and in data set [5] were above 3 µM, 0.1 µM and 0.7 µM, respectively.

Regarding `COC[C@H]1OC(=O)/C(=C/N2CCCC2)C2=C(O)C(=O)C3=C([C@H](OC(C)=O)C[C@]4(C)C(=O)CC[C@@H]34)[C@]21C` [DJM2-167, Acetic acid 6-hydroxy-1α-methoxymethyl-10β,13β-dimethyl-3,7,17-trioxo-4-pyrrolidin-1-yl-methylene-1,3,4,7,10,11β,12,13,14α,15,16,17-dodecahydro-2-oxa-cyclopenta[a]phenanthren-11-yl], the IC50 in data set [2] (dose to cause 50% inhibition) is 1.1 µM; in data set [5], 0.5 µM.
